Measured values from the supplement of paper PMC10307832.

Columns and labels:
Assay in all cases: relative viability (nuclei count vs DMSO), 5 days (fraction); higher = more cells survive
BEN = system: BEN
How it was run: (§1)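 Lung cancer cell lines were pin-tool dosed in 1536-well plates on the day after seeding, with either a lone drug or a fixed anchor-drug dose plus five library-drug doses (not always all listed) in √10 steps. Nuclei were counted on 4× images after 5 days. Relative viability is the ratio of treated-well to vehicle-well nuclei counts, with each value a median of duplicate plates.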

ChaGo-K-1 = system: ChaGo-K-1
How it was run: as §1

HCC-78 = system: HCC-78
How it was run: as §1

LC-2-ad = system: LC-2-ad
How it was run: as §1

LCLC-97TM1 = system: LCLC-97TM1
How it was run: as §1

LK-2 = system: LK-2
How it was run: as §1

LU99A = system: LU99A
How it was run: as §1

LXF-289 = system: LXF-289
How it was run: as §1

NCI-H1355 = system: NCI-H1355
How it was run: as §1

NCI-H1651 = system: NCI-H1651
How it was run: as §1

NCI-H1666 = system: NCI-H1666
How it was run: as §1

NCI-H1944 = system: NCI-H1944
How it was run: as §1

NCI-H1975 = system: NCI-H1975
How it was run: as §1

NCI-H2087 = system: NCI-H2087
How it was run: as §1

NCI-H358 = system: NCI-H358
How it was run: as §1

NCI-H596 = system: NCI-H596
How it was run: as §1

NCI-H650 = system: NCI-H650
How it was run: as §1

NCI-H661 = system: NCI-H661
How it was run: as §1

NCI-H838 = system: NCI-H838
How it was run: as §1

PC-3 [JPC-3] = system: PC-3 [JPC-3]
How it was run: as §1

SK-MES-1 = system: SK-MES-1
How it was run: as §1

Question: What does the source list for `Nc1ccn([C@@H]2O[C@H](CO)[C@@H](O)[C@@H]2O)c(=O)n1` [Cytarabine] + C[C@@H](Oc1cc(-c2cnn(C3CCNCC3)c2)cnc1N)c1c(Cl)ccc(F)c1Cl [Crizotinib] (partner 1 µM)?
Answer: relative viability (BEN; first compound 0.005 µM): 0.605; relative viability (BEN; first compound 0.01581 µM): 0.66; relative viability (BEN; first compound 0.05 µM): 0.449; relative viability (BEN; first compound 0.1581 µM): 0.311; relative viability (BEN; first compound 0.5 µM): 0.292; relative viability (ChaGo-K-1; first compound 0.005 µM): 0.732; relative viability (ChaGo-K-1; first compound 0.01581 µM): 0.717; relative viability (ChaGo-K-1; first compound 0.05 µM): 0.521; relative viability (ChaGo-K-1; first compound 0.1581 µM): 0.383; relative viability (ChaGo-K-1; first compound 0.5 µM): 0.358; relative viability (HCC-78; first compound 0.005 µM): 0.369; relative viability (HCC-78; first compound 0.01581 µM): 0.302; relative viability (HCC-78; first compound 0.05 µM): 0.282; relative viability (HCC-78; first compound 0.1581 µM): 0.26; relative viability (HCC-78; first compound 0.5 µM): 0.2; relative viability (LC-2-ad; first compound 0.005 µM): 0.416; relative viability (LC-2-ad; first compound 0.01581 µM): 0.544; relative viability (LC-2-ad; first compound 0.05 µM): 0.453; relative viability (LC-2-ad; first compound 0.1581 µM): 0.341; relative viability (LC-2-ad; first compound 0.5 µM): 0.295; relative viability (LCLC-97TM1; first compound 0.005 µM): 0.487; relative viability (LCLC-97TM1; first compound 0.01581 µM): 0.213; relative viability (LCLC-97TM1; first compound 0.05 µM): 0.181; relative viability (LCLC-97TM1; first compound 0.1581 µM): 0.115; relative viability (LCLC-97TM1; first compound 0.5 µM): 0.106; relative viability (LK-2; first compound 0.005 µM): 0.262; relative viability (LK-2; first compound 0.01581 µM): 0.305; relative viability (LK-2; first compound 0.05 µM): 0.208; relative viability (LK-2; first compound 0.1581 µM): 0.196; relative viability (LK-2; first compound 0.5 µM): 0.205; relative viability (LU99A; first compound 0.005 µM): 0.62; relative viability (LU99A; first compound 0.01581 µM): 0.549; relative viability (LU99A; first compound 0.05 µM): 0.517; relative viability (LU99A; first compound 0.1581 µM): 0.527; relative viability (LU99A; first compound 0.5 µM): 0.498; relative viability (LXF-289; first compound 0.005 µM): 0.745; relative viability (LXF-289; first compound 0.01581 µM): 0.78; relative viability (LXF-289; first compound 0.05 µM): 0.663; relative viability (LXF-289; first compound 0.1581 µM): 0.339; relative viability (LXF-289; first compound 0.5 µM): 0.389; relative viability (NCI-H1355; first compound 0.005 µM): 0.998; relative viability (NCI-H1355; first compound 0.01581 µM): 1.03; relative viability (NCI-H1355; first compound 0.05 µM): 0.973; relative viability (NCI-H1355; first compound 0.1581 µM): 0.46; relative viability (NCI-H1355; first compound 0.5 µM): 0.399; relative viability (NCI-H1651; first compound 0.005 µM): 0.869; relative viability (NCI-H1651; first compound 0.01581 µM): 0.904; relative viability (NCI-H1651; first compound 0.05 µM): 0.834; relative viability (NCI-H1651; first compound 0.1581 µM): 0.584; relative viability (NCI-H1651; first compound 0.5 µM): 0.549; relative viability (NCI-H1666; first compound 0.005 µM): 0.794; relative viability (NCI-H1666; first compound 0.01581 µM): 0.945; relative viability (NCI-H1666; first compound 0.05 µM): 0.612; relative viability (NCI-H1666; first compound 0.1581 µM): 0.358; relative viability (NCI-H1666; first compound 0.5 µM): 0.388; relative viability (NCI-H1944; first compound 0.005 µM): 0.9; relative viability (NCI-H1944; first compound 0.01581 µM): 0.466; relative viability (NCI-H1944; first compound 0.05 µM): 0.367; relative viability (NCI-H1944; first compound 0.1581 µM): 0.2; relative viability (NCI-H1944; first compound 0.5 µM): 0.176; relative viability (NCI-H1975; first compound 0.005 µM): 0.801; relative viability (NCI-H1975; first compound 0.01581 µM): 1.01; relative viability (NCI-H1975; first compound 0.05 µM): 0.994; relative viability (NCI-H1975; first compound 0.1581 µM): 0.667; relative viability (NCI-H1975; first compound 0.5 µM): 0.373; relative viability (NCI-H2087; first compound 0.005 µM): 0.702; relative viability (NCI-H2087; first compound 0.01581 µM): 0.886; relative viability (NCI-H2087; first compound 0.05 µM): 0.69; relative viability (NCI-H2087; first compound 0.1581 µM): 0.731; relative viability (NCI-H2087; first compound 0.5 µM): 0.537; relative viability (NCI-H358; first compound 0.005 µM): 0.488; relative viability (NCI-H358; first compound 0.01581 µM): 0.5; relative viability (NCI-H358; first compound 0.05 µM): 0.352; relative viability (NCI-H358; first compound 0.1581 µM): 0.319; relative viability (NCI-H358; first compound 0.5 µM): 0.231; relative viability (NCI-H596; first compound 0.005 µM): 0.889; relative viability (NCI-H596; first compound 0.01581 µM): 0.961; relative viability (NCI-H596; first compound 0.05 µM): 0.786; relative viability (NCI-H596; first compound 0.1581 µM): 0.614; relative viability (NCI-H596; first compound 0.5 µM): 0.743; relative viability (NCI-H650; first compound 0.005 µM): 0.664; relative viability (NCI-H650; first compound 0.01581 µM): 0.519; relative viability (NCI-H650; first compound 0.05 µM): 0.353; relative viability (NCI-H650; first compound 0.1581 µM): 0.259; relative viability (NCI-H650; first compound 0.5 µM): 0.177; relative viability (NCI-H661; first compound 0.005 µM): 0.963; relative viability (NCI-H661; first compound 0.01581 µM): 1.15; relative viability (NCI-H661; first compound 0.1581 µM): 0.975; relative viability (NCI-H661; first compound 0.5 µM): 0.632; relative viability (NCI-H838; first compound 0.005 µM): 0.715; relative viability (NCI-H838; first compound 0.01581 µM): 0.877; relative viability (NCI-H838; first compound 0.05 µM): 0.699; relative viability (NCI-H838; first compound 0.1581 µM): 0.339; relative viability (NCI-H838; first compound 0.5 µM): 0.224; relative viability (PC-3 [JPC-3]; first compound 0.005 µM): 0.781; relative viability (PC-3 [JPC-3]; first compound 0.01581 µM): 0.837; relative viability (PC-3 [JPC-3]; first compound 0.05 µM): 0.78; relative viability (PC-3 [JPC-3]; first compound 0.1581 µM): 0.712; relative viability (PC-3 [JPC-3]; first compound 0.5 µM): 0.617; relative viability (SK-MES-1; first compound 0.005 µM): 0.706; relative viability (SK-MES-1; first compound 0.01581 µM): 0.741; relative viability (SK-MES-1; first compound 0.05 µM): 0.367; relative viability (SK-MES-1; first compound 0.1581 µM): 0.274; relative viability (SK-MES-1; first compound 0.5 µM): 0.219
